Values of other authors in patent US9139604B2, “Antiviral phosphonate analogs” (Gilead Sciences, Inc., priority 2003, dated 2015).

System: HIV
Conditions: described in the literature; kind of value (EC50/IC50) not stated

In the case of `Nc1nc(=O)c2ncn([C@@H]3C[C@H](CO)[C@H]3CO)c2[nH]1` [lubocavir], the anti-HIV activity is given as 30 µM.
